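Results reflect a 48-hour exposure of cells in 96-well plates to compound at five concentrations. At the GI50, growth is halved. The concentration for full growth arrest is given as TGI.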
What was measured:
Assay in all cases: inhibition of tumour cell growth, NCI panel, 48 h
[1] = tested on: NCI-H226 lung
[2] = tested on: 786-0 renal
[3] = tested on: K-562 leukemia
[4] = tested on: HCC-2998 colon
[5] = tested on: M14 melanoma
[6] = tested on: OVCAR-5 ovarian
[7] = tested on: SF-295 CNS
[8] = tested on: MDA-N
[9] = tested on: CCRF-CEM leukemia

Row | SMILES | TGI [1] [µM] | TGI [2] [µM] | TGI [3] [µM] | TGI [4] [µM] | TGI [5] [µM] | TGI [6] [µM] | TGI [7] [µM] | TGI [8] [µM] | TGI [9] [µM] | GI50 [1] [µM] | GI50 [9] [µM] | GI50 [6] [µM] | GI50 [8] [µM] | GI50 [3] [µM] | GI50 [4] [µM] | GI50 [5] [µM] | GI50 [7] [µM]
1 | Nn1c(CCCCCCCCc2nnc(COc3c(O)ccc4ccccc34)n2N)nnc1COc1c(O)ccc2ccccc12 | > 100 | > 100 | > 100 | > 100 | > 100 | > 100 | > 100 | > 100 |  |  |  |  |  |  |  |  | 
2 | Nc1nn2c(C(Br)Br)cc(C(Br)Br)nc2c1[N+](=O)[O-] | 5.5 | 1.08 | 0.857 | 4.52 | 1.81 | 3.12 | 4.46 | 2.26 | 0.51 |  |  |  |  |  |  |  | 
3 | O=C1CCC(=Nc2ccc(Cl)cc2)N1C(=O)COc1ccc(OCC(=O)N2C(=O)CSC2=Nc2ccc(Cl)cc2)cc1 | > 100 | > 100 | > 100 | > 100 | > 100 | > 100 | > 100 | > 100 |  |  |  |  |  |  |  |  | 
4 | COP(=O)(O)/C=C/C(NC(=O)C(Cl)(Cl)Cl)c1ccccc1 (stereo not drawn) | > 100 | > 100 | > 100 | > 100 | > 100 | > 100 | > 100 | > 100 |  |  |  |  |  |  |  |  | 
5 | c1ccc2c(c1)[nH]c1nc3cc(-c4ccc5nc6c(nc5c4)[nH]c4ccccc46)ccc3nc12 | > 100 | > 100 |  | > 100 | > 100 | > 100 | > 100 | > 100 | > 100 |  |  |  |  |  |  |  | 
6 | CCCCCCCCCC[C@H](O)[C@H]1CC[C@H]([C@H]2CC[C@H]([C@H](O)CC[C@H](O)CCCCCCC[C@@H](O)CC3=C[C@H](C)OC3=O)O2)O1 | > 100 | > 100 | 67.8 | > 100 | > 100 | > 100 | > 100 | > 100 | > 100 | > 100 | 3.12 | > 100 | 6.36 |  |  |  | 
7 | COc1ccc(CC(CO)NC(=O)OCc2ccccc2)cc1Oc1ccc(CC(CO)NC(=O)OCc2ccccc2)cc1 (stereo not drawn) |  |  |  | 93.6 | 23.3 | 30.9 | 24.6 | 54.1 | 66.6 |  |  |  |  |  |  |  | 
8 | N#Cc1c(-c2ccccc2)/c(=C\Nc2ccc(Cl)cc2)c(=O)n2c1nc1ccccc12 | > 100 | > 100 |  | > 100 | > 100 | > 100 | > 100 | > 100 | 84.9 |  |  |  |  |  |  |  | 
9 | COc1cc2c(cc1OCCCCOc1cc(-c3ccc(F)cc3)nc(C)n1)N=C[C@@H]1CCCN1C2=O | 4.71 | 6.94 | 9.5 | 0.689 | 1.87 | 10.9 | 2.26 |  | 3.17 |  |  |  |  |  |  |  | 
10 | O=[N+]([O-])C(=C(N1CCCCC1)N1CCCCC1)/C(Cl)=C(\Cl)Br | 44.6 | 67.8 | 46.2 | 32.3 | 59.1 |  | > 100 | > 100 | 42.4 |  |  |  |  |  |  |  | 
11 | COc1ccc2c(c1)O/C(=C\c1cccc(OCC(=O)Nc3nc4c(s3)CCCC4)c1)C2=O | > 100 | > 19.9 | > 78.3 | > 100 | > 100 | > 78.8 | > 43.2 |  | 7.79 | > 100 | 2.07 | > 40.6 |  | 4.08 | > 100 | > 100 | 
12 | Cc1cn2c(/C=C3/C(=O)Nc4cccc(Cl)c43)c(Cl)nc2s1 |  | > 100 | > 100 | 76.5 | > 100 | > 100 | > 100 | > 100 | 28 |  |  |  |  |  |  |  | 
13 | CC1(C)C(c2ccccc2)=[N+]([O-])C(C)(C)N1O | > 10 | > 10 |  | > 10 | > 10 | > 10 | > 10 | > 10 | > 10 |  |  |  |  |  |  |  | 
14 | CC(=O)OC(C)c1cc2c(s1)C(=O)c1sccc1C2=O (stereo not drawn) | 3.94 |  | > 100 | 3.54 | 0.389 | 3.3 | 2.56 | 0.0338 | > 100 |  |  |  |  |  |  |  | 
15 | CCC1=CCC23C(=O)C=CC(=O)C2(C1)C(=O)c1cccc(OC)c1C3=O (stereo not drawn) | 67.2 | 24.8 | 72.4 |  | 30.4 | 31.8 | > 100 | 35.7 | 28.1 |  |  |  |  |  |  |  | 
16 | COc1cccc(-c2cc(=O)c3c(C)cc(C)nc3[nH]2)c1 | 9.09 | > 100 | 1.41 | 6.19 | > 100 | > 100 | > 73.6 |  | 2.87 |  |  |  |  |  |  |  | 
17 | CN(C)NC(=S)Nc1ccccc1Br | > 100 | > 100 | > 100 |  | > 100 | > 100 | > 100 | > 100 | > 100 |  |  |  |  |  |  |  | 
18 | CCOP(=O)(OCC)C1C(CO)OC(n2ccc(=O)[nH]c2=O)C1O (stereo not drawn) | > 100 | > 100 | > 100 | > 100 | > 100 |  | > 100 | > 100 |  |  |  |  |  |  |  |  | 

Row | SMILES | TGI [1] [µM] | TGI [2] [µM] | TGI [3] [µM] | TGI [4] [µM] | TGI [5] [µM] | TGI [6] [µM] | TGI [7] [µM] | TGI [8] [µM] | TGI [9] [µM] | GI50 [1] [µM] | GI50 [9] [µM] | GI50 [6] [µM] | GI50 [8] [µM] | GI50 [3] [µM] | GI50 [4] [µM] | GI50 [5] [µM] | GI50 [7] [µM]
19 | Oc1ccc(-c2nnc3sc(-c4ccc(F)cc4)nn23)cc1 | > 100 |  | > 100 | > 100 |  | > 100 | 59.9 |  | > 100 | 49.6 | 55.7 | > 100 |  | > 100 | > 100 |  | 18.1
20 | CC(C)=C[C@@H]1C[C@H](n2cc(C)c(=O)[nH]c2=O)ON1CCO | > 100 | > 100 | > 100 |  | > 100 | > 100 | > 100 | > 100 | > 100 |  |  |  |  |  |  |  | 
21 | COC(=O)c1c(C)cccc1/C=C1/Cc2c(C)cccc2C1=O | > 100 | > 100 |  | > 100 |  | > 100 | > 100 | > 100 |  |  |  |  |  |  |  |  | 
22 | Cc1cc(-c2nc3c(O)cccc3s2)ccc1N | > 100 | 95.1 | > 100 | > 100 | 39.5 |  | 72.2 | 76.9 | 82.9 |  |  |  |  |  |  |  | 
23 | O=C1/C(=C/c2ccccc2S)N=C(c2ccccc2)N1c1nc2ccc(Sc3ccccc3)cc2[nH]1 |  | 87.1 | > 100 | 37.6 | 49 | > 100 | 72.5 | 34.4 | > 100 |  |  |  |  |  |  |  | 
24 | COc1ccc(N2C(=O)c3c4c(c5c([nH]c6ncccc65)c3C2=O)CCC(C(C)(C)C)C4)cc1 (stereo not drawn) | > 100 | > 100 |  | > 100 | > 100 |  | > 100 | > 100 | > 100 |  |  |  |  |  |  |  | 
25 | O=C1CCSSCCC(=O)NCCN1 | > 100 | > 100 | > 100 |  | > 100 | > 100 | > 100 | > 100 | > 100 |  |  |  |  |  |  |  | 
26 | Cc1cc(C)c2c(=O)n(CN3CC4Nc5ccccc5C4C3)sc2n1 (stereo not drawn) | 81.1 | 33.8 | 92.7 |  | 63.1 | 42.4 | > 100 | 44.3 | > 100 |  |  |  |  |  |  |  | 
27 | COC(=O)c1ccccc1/C=C1/Cc2ccccc2C1=O | > 100 |  | > 100 | > 100 |  | > 100 | > 100 | > 100 | 98.5 |  |  |  |  |  |  |  | 
28 | CN(C)c1ccc(-c2c(C#N)c(S)n(NS(=O)(=O)c3ccccc3)c(=O)c2C#N)cc1 |  | 40.6 | > 100 | > 100 | > 100 | > 100 | > 100 | 86.5 | > 100 |  |  |  |  |  |  |  | 
29 | C1CCSCCCCSCCCCSCCCCSC1 | > 100 | > 100 | > 100 | > 100 | > 100 | > 100 | > 100 | > 100 |  |  |  |  |  |  |  |  | 
30 | OC[C@@H](O)[C@H]1NC[C@@H](O)[C@H]1O |  | > 100 |  | > 100 | > 100 | > 100 | > 100 | > 100 | > 100 |  |  |  |  |  |  |  | 
31 | CCOC1CC(=O)c2c(Br)sc(Br)c21 (stereo not drawn) |  | 94.7 | 41.5 | 36.9 | 36.2 | 45.3 | 77.4 | 49.6 | 50.8 |  |  |  |  |  |  |  | 
32 | CC(=O)NS(=O)(=O)c1ccc(NC(=O)c2c3ccccc3nc3ccccc23)cc1 |  | > 100 | > 100 | > 100 | > 100 | > 100 | > 100 | > 100 | > 100 |  |  |  |  |  |  |  | 
33 | CC(=O)OC[C@]1(C(=O)C(O)c2ccoc2)[C@H](C)CC[C@@]23COC(=O)C2=CCC[C@@H]31 (stereo partly drawn) | > 10 | > 10 |  | > 10 | > 10 | > 10 | > 10 | > 10 | > 10 |  |  |  |  |  |  |  | 
34 | COc1ccc(/C(=N/O)c2ccccc2-c2nc3ccccc3c(=O)n2-c2ccc(S(=O)(=O)Nc3ncccn3)cc2)cc1C |  |  | 21.6 | 21.7 | > 31.6 | > 31.6 | 27.9 | > 31.6 | 25.5 |  |  |  |  |  |  |  | 
35 | COc1cc(C2c3cc4c(cc3OC(NN=C(C)C)C2C)OCO4)cc(OC)c1O (stereo not drawn) | > 100 | > 100 |  | 31.6 | > 100 | > 100 | > 100 | 11.6 |  |  |  |  |  |  |  |  | 
36 | CCN(CC)CCOC(NC(C)=O)(c1ccccc1)c1ccccc1 | > 100 | > 100 |  | > 100 | > 100 | > 100 | > 100 |  | > 100 |  |  |  |  |  |  |  | 
